“And” between values parts separate entries of the source, which are not always exact repeats. Equal entries are not always repeated.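 Compound exposure: 48 hours, 5 concentrations, 96-well plates. At the GI50, growth is halved. At the TGI there is no net growth.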
Columns and labels:
Assay in all cases: NCI tumour cell line growth inhibition, 48 h
HOP-18 NSCLC = system: HOP-18 NSCLC
M19-MEL melanoma = system: M19-MEL melanoma
KM20L2 colon = system: KM20L2 colon
XF 498 CNS = system: XF 498 CNS
DLD-1 colon = system: DLD-1 colon
DMS 114 small cell lung = system: DMS 114 small cell lung
P388 leukemia = system: P388 leukemia
SN12K1 renal = system: SN12K1 renal
P388/ADR leukemia = system: P388/ADR leukemia
RXF-631 renal = system: RXF-631 renal

Row | SMILES | TGI (HOP-18 NSCLC) | TGI (M19-MEL melanoma) | TGI (KM20L2 colon) | TGI (XF 498 CNS) | TGI (DLD-1 colon) | TGI (DMS 114 small cell lung) | TGI (P388 leukemia) | TGI (SN12K1 renal) | TGI (P388/ADR leukemia) | TGI (RXF-631 renal) | GI50 (P388 leukemia) | GI50 (HOP-18 NSCLC) | GI50 (DLD-1 colon) | GI50 (SN12K1 renal) | GI50 (P388/ADR leukemia)
1 | O=C(NNc1ccc([N+](=O)[O-])cc1)C1OC(CO)C(O)C1O (stereo unspecified) | > 100 µM | > 100 µM | > 100 µM | > 100 µM | > 100 µM | > 100 µM | – | – | – | – | – | – | – | – | –
2 | C=C1C(=O)OC2C1CC1OC2C(C)CCC/C(C)=C\CCC1(C)O (stereo unspecified) | 19.7 µM | 29 µM | 81.9 µM | 38.9 µM | 64.8 µM | 33 µM | 42.4 µM | 40.2 µM | 58.2 µM | – | – | – | – | – | –
3 | COc1ccc(/C(Cl)=C(\C=O)c2ccc(Cl)cc2)cc1 | > 100 µM | 75.4 µM | 33.2 µM | – | > 100 µM | 32.5 µM | – | – | – | 47.6 µM | – | – | – | – | –
4 | O=C(c1ccccc1)c1ccc2c(c1)N=C(c1ccc(Cl)c(Cl)c1)CC(c1ccc3ccccc3c1)N2 (stereo unspecified) | – | > 100 µM | > 100 µM | > 100 µM | > 100 µM | > 100 µM | – | – | – | > 100 µM | – | – | – | – | –
5 | O.O=[Se](=O)(O)O.[NH-]C1CCCCC1[NH-].[Pt+2] (stereo unspecified) | > 100 µM | > 75.6 µM | > 100 µM | – | > 100 µM | – | 30.9 µM | > 100 µM | > 100 µM | – | 0.433 µM | > 100 µM | 19 µM | > 30.4 µM | 7.22 µM
6 | C#Cc1ccccc1C(=O)OC | > 100 µM | – | > 100 µM | > 100 µM | > 100 µM | > 100 µM | – | – | – | – | – | – | – | – | –
7 | CC1=NN(C(=O)Cc2ccccc2)C(=O)/C1=C\c1cccc(O)c1 | > 100 µM | > 100 µM | – | > 100 µM | > 100 µM | > 100 µM | – | – | – | – | – | – | – | – | –
8 | O=c1c2cc(Cl)ccc2n2nnc3ccc(NCCNCCO)c1c32 | – | 3.28 µM | 2.72 µM | – | 5.76 µM | 3.59 µM | – | – | – | 3.05 µM | – | – | – | – | –
9 | Nc1ncnc2c(C3OC(CO)C(O)C3O)c[nH]c12 (stereo unspecified) | 0.497 µM and 1.34 µM | 0.196 µM and 0.423 µM | 1.1 µM | 0.168 µM | 0.0413 µM | 0.0304 µM and 0.0184 µM | – | – | – | 0.56 µM and 0.533 µM | – | – | – | – | –
10 | Cc1ccc(NC(=O)NC23CC4CC(CC(F)(C4)C2)C3)cc1 | – | > 100 µM | > 100 µM | > 100 µM | > 100 µM | > 100 µM | – | – | – | – | – | – | – | – | –

From PubChem BioAssay (NCI)
